From patent publication US20110189122A1, “Use of Molt-Accelerating Compounds, Ecdysteroids, Analogs Thereof, and Chitin Synthesis Inhibitors for Controlling Termites” (priority 2004, published 2011)

Tests used:
C. formosanus [1] = experiment: Feeding ecdysteroid-treated filter paper to subterranean termites, 12-day exposure; assay type: in vivo; conditions: for days of exposure until some termites exhibited the jackknife position (incomplete molting): treated filter paper
Method: (§1) Termites were collected from three colonies each of C. formosanus and R. flavipes and were held in the laboratory at 26±1° C. and 98±2% RH before use Technical grade ecdysone was dissolved in methanol to obtain 0.1, 1, 10, 100 and 1,000-ppm solutions by serial dilution. Methanol solutions (i.e., 0 ppm AI) were used as untreated controls. Each concentration solution (0.2 ml) was pipetted onto […] Whatman No. 1 filter paper fitted into 5-cm-diameter glass Petri dishes and allowed to evaporate overnight.
(§2) This filter paper served as the cellulose food source for twenty-five termites, plus one soldier for R. flavipes or three soldiers for C. formosanus, which were introduced into each Petri dish after moistening the filter paper with 0.175 ml deionized water. For each species, two subsamples each of three colonies were used per concentration for a total of 72 experimental units. The bioassay units was held at 26±1° C. Observation was made daily for 12 days. Termites showing symptoms of incomplete molting were counted, and dead termites were removed from each unit. […] For each treatment and species combination, mean percent termites showing symptoms of incomplete molting and mortality among concentrations at 12 day were arcsine-root transformed and subjected to the analysis of variance (ANOVA). Significant differences (α=0.05) among concentrations were separated using Fisher's least significant difference (LSD) test (SAS Institute 1999).
(§3) 20-hydroxyecdysone is an ecdysone byproduct. Technical grade 20-hydroxyecdysone (20 E) was dissolved and used in the same manners as was ecdysone, as discussed above in Example 1.

R. flavipes = experiment: as above; assay type: in vivo; conditions: for days of exposure until some termites exhibited the jackknife position (incomplete molting): treated filter paper
Method: as §1, §2, §3

[2] = system: eastern subterranean termites (EST), Reticulitermes flavipes (Kollar); experiment: Test #1 Choice Feeding Bait Test, Halofenozide+Hexaflumuron (treated filter paper vs. untreated SYP); assay type: in vivo; conditions: for % Surviving: 26 days; for mg consumed after 12 days (Mean ± SEM), treated FP: choice vs. SYP
Method: (§4) Test #1 Choice Feeding Bait Test, Halofenozide+Hexaflumuron. A paired choice feeding test was conducted to compare feeding response and resultant mortality caused by various combinations of technical grade halofenozide and hexaflumuron treated on filter paper (acetone carrier). The test apparatus consisted of two round plastic containers connected by a 7-cm long piece of 2.5-mm diameter (ID) tygon tubing. A known number of termite workers were introduced into a central harborage chamber (5.5 cm round container with ventilated lid) containing a vermiculite/sand/water mixture of ca. 1:1:1. The central harborage chamber was connected by the tygon tubing to the bait foraging chamber (without sand/vermiculite matrix) containing the paired feeding choices.
ESTs were given the choice to feed between untreated blocks of southern yellow pine (SYP) and treated filter paper. Halofenozide was tested individually at concentrations of 1250, 2500, and 5000 ppm. Hexaflumuron was tested at 5000 ppm, and also combined with each of the aforementioned concentrations of halofenozide. For comparative purposes, technical grade noviflumuron were also tested at 5000 ppm. After twelve days, all treatments were removed, oven-dried, and weighed for consumption. Filter paper was placed in all bioassay units that were held for fourteen more days. Surviving termites were then counted in each replicate. Thus, survival was counted at 26 days after initial exposure to the toxicant. Each treatment was replicated four times with 50 termites per replicate.

[3] = system: eastern subterranean termites (EST), Reticulitermes flavipes (Kollar); experiment: Test #2 Choice Feeding Bait Test, Halofenozide+Noviflumuron (treated filter paper vs. untreated SYP); assay type: in vivo; conditions: for mg consumed after 14 days (Mean ± SEM), untreated SYP: SYP block offered against FP with single active 5000 ppm; for No. Survivors/50 after 14 days (Mean ± SEM) / % Surviving / mg consumed after 14 days (Mean ± SEM), treated FP: single active 5000 ppm on filter paper; for % Surviving: 14 days; for mg consumed after 14 days (Mean ± SEM), treated FP: choice vs. SYP
Method: as §4
Test #2. Choice Feeding Bait Test, Halofenozide+Noviflumuron. A standard paired choice feeding test using the same methods described in Test #1 was conducted to compare feeding response and resultant mortality caused by various combinations of technical grade halofenozide and noviflumuron treated on filter paper (acetone carrier). EST were given the choice to feed between untreated blocks of southern yellow pine (SYP) and treated filter paper. Halofenozide and noviflumuron were tested individually at concentrations of 5000 ppm. Five thousand ppm (5000-ppm) noviflumuron was also tested in combination with 1250, 2500, or 5000 ppm halofenozide. After fourteen days, all treatments were removed, oven-dried, and weighed for consumption. Because of the rapid activity of noviflumuron, surviving termites were also counted in each replicate after only 14 days of feeding. Each treatment was replicated four times with 50 termites per replicate.

C. formosanus [4] = conditions: C. formosanus, 10,000 ppm, similar condition; cited from earlier work
[5] = system: eastern subterranean termites (Reticulitermes flavipes); conditions: wood slice feeding blocks vacuum-impregnated with halofenozide, choice test; cited from earlier work
Amitermes wheeleri = experiment: Forced feeding test on treated purified cellulosic bait; assay type: in vivo; conditions: 5000 ppm noviflumuron on cellulosic bait
Method: A forced feeding test was conducted to compare mortality caused by different active ingredients treated on purified cellulosic bait. The test apparatus was the same as that described in Example 5. Noviflumuron was tested on the bait at 5000-ppm concentration, and also in combination with 5000-ppm Halofenozide Blank bait was also tested. Surviving termites were also counted at 28 days after initial exposure to the toxicant.

[6] = C. formosanus, 0.1 ppm, 12-day exposure
[7] = C. formosanus, 1 ppm, 12-day exposure
[8] = C. formosanus, 10 ppm, 12-day exposure
[9] = C. formosanus, 100 ppm, 12-day exposure
[10] = C. formosanus, 1,000 ppm, 12-day exposure
[11] = C. formosanus, 1,000 ppm, 12-day exposure, listed as 20 E
[12] = R. flavipes, 0.1 ppm, 12-day exposure
[13] = R. flavipes, 1 ppm, 12-day exposure
[14] = R. flavipes, 10 ppm, 12-day exposure
[15] = R. flavipes, 100 ppm, 12-day exposure
[16] = R. flavipes, 1,000 ppm, 12-day exposure
[17] = SYP block offered against FP with single active 5000 ppm
[18] = single active 1250 ppm on filter paper
[19] = single active 2500 ppm on filter paper
[20] = single active 5000 ppm on filter paper

Row | SMILES | % Incomplete Molting (±SE) (C. formosanus [1]; [6]) [a %] | % Incomplete Molting (±SE) (C. formosanus [1]; [7]) [a %] | % Incomplete Molting (±SE) (C. formosanus [1]; [8]) [a %] | % Incomplete Molting (±SE) (C. formosanus [1]; [9]) [a %] | days of exposure until some termites exhibited the jackknife position (incomplete molting) (C. formosanus [1]; C. formosanus) | % Incomplete Molting (±SE) (R. flavipes; [12]) [a %] | % Incomplete Molting (±SE) (R. flavipes; [13]) [a %] | % Incomplete Molting (±SE) (R. flavipes; [14]) [a %] | % Incomplete Molting (±SE) (R. flavipes; [15]) | days of exposure until some termites exhibited the jackknife position (incomplete molting) (R. flavipes; R. flavipes) | mg consumed after 12 days (Mean ± SEM), untreated SYP [2, 17] | No. Survivors/50 after 26 days (Mean ± SEM) [2, 20] | % Surviving [2, 20] [%] | mg consumed after 12 days (Mean ± SEM), treated FP [2, 20] [a mg] | mg consumed after 14 days (Mean ± SEM), untreated SYP [3] | No. Survivors/50 after 14 days (Mean ± SEM) [3] | % Surviving [3] [%] | mg consumed after 14 days (Mean ± SEM), treated FP [3] [a mg] | further results
1 | CC(C)(O)CC[C@@H](O)[C@](C)(O)[C@H]1CC[C@@]2(O)C3=CC(=O)[C@@H]4C[C@@H](O)[C@@H](O)C[C@]4(C)[C@H]3CC[C@]12C [20-hydroxyecdysone] | 0.00 ± 0.00 | 0.00 ± 0.00 | 0.00 ± 0.00 | 2.38 ± 1.19 | approximately 7 days | 0.00 ± 0.00 | 0.00 ± 0.00 | 0.00 ± 0.00 | 3.85 ± 1.40ab % | approximately 7 days | – | – | – | – | – | – | – | – | % Mortality (±SE) (C. formosanus [1]; [6]): 1.19 ± 0.75ab %; % Mortality (±SE) (C. formosanus [1]; [7]): 10.12 ± 9.42bc %; % Mortality (±SE) (C. formosanus [1]; [8]): 3.57 ± 2.26abc %; % Mortality (±SE) (C. formosanus [1]; [9]): 11.90 ± 5.43c %; % Incomplete Molting (±SE) (C. formosanus [1]; [10]): 26.19 ± 6.09b %; % Mortality (±SE) (C. formosanus [1]; [10]): 74.40 ± 3.62d %; % Incomplete Molting (±SE) (C. formosanus [1]; [11]): evident; % Mortality (±SE) (C. formosanus [1]; [11]): ca. 75%; % Mortality (±SE) (R. flavipes; [12]): 0.64 ± 0.64a %; % Mortality (±SE) (R. flavipes; [13]): 0.00 ± 0.00a %; % Mortality (±SE) (R. flavipes; [14]): 0.64 ± 0.64a %; % Mortality (±SE) (R. flavipes; [15]): 76.19 ± 11.28b %; % Incomplete Molting (±SE) (R. flavipes; [16]): 7.69 ± 3.29b %; % Mortality (±SE) (R. flavipes; [16]): 100%; % Incomplete Molting (±SE) (R. flavipes; R. flavipes, 1,000 ppm, 12-day exposure, listed as 20 E): evident
2 | CC(C)(C)N(NC(=O)c1ccc(Cl)cc1)C(=O)c1ccccc1 [Halofenozide, halofenozide] | – | – | – | – | – | – | – | – | – | – | 14.97 ± 3.85 a mg | 23.25 ± 7.88 days | 46.5 | 9.33 ± 1.41 | 8.35 ± 3.91 a mg | 22.25 ± 5.36 b | 44.5 | 10.12 ± 1.48 | mg consumed after 12 days (Mean ± SEM), untreated SYP ([2]; SYP block offered against FP with single active 1250 ppm): 9.49 ± 2.57 a mg; mg consumed after 12 days (Mean ± SEM), untreated SYP ([2]; SYP block offered against FP with single active 2500 ppm): 7.92 ± 2.13 a mg; No. Survivors/50 after 26 days (Mean ± SEM) [2, 18]: 45.00 ± 2.04 a; % Surviving [2, 18]: 90.0%; mg consumed after 12 days (Mean ± SEM), treated FP [2, 18]: 16.05 ± 3.39 a mg; No. Survivors/50 after 26 days (Mean ± SEM) [2, 19]: 33.75 ± 6.56 bc; % Surviving [2, 19]: 67.5%; mg consumed after 12 days (Mean ± SEM), treated FP [2, 19]: 18.70 ± 4.32 a mg; mortality (C. formosanus [4]): 50%; concentrations at which feeding deterrence occurs [5]: greater than 4,000 ppm
3 | O=C(NC(=O)c1c(F)cccc1F)Nc1cc(Cl)c(OC(F)(F)C(F)F)c(Cl)c1 [Hexaflumuron, hexaflumuron] | – | – | – | – | – | – | – | – | – | – | 9.28 ± 3.55 b mg | 32.5 ± 5.48 bc | 65.0 | 21.20 ± 2.06 | – | – | – | – | –
4 | O=C(NC(=O)c1c(F)cccc1F)Nc1cc(Cl)c(OC(F)(F)C(F)C(F)(F)F)c(Cl)c1F (stereo not shown) [Noviflumuron, noviflumuron] | – | – | – | – | – | – | – | – | – | – | 1.77 ± 1.71 b mg | 5.00 ± 3.72 e | 10.0 | 16.17 ± 3.64 | 2.58 ± 1.03 b mg | 13.50 ± 3.52 bc | 27.0 | 14.58 ± 2.20 | % Surviving ([3]; listed as noviflumuron): 27%; No. Survivors/30 after 28 days (Amitermes wheeleri): reduced termite survivorship in half; % Surviving (Amitermes wheeleri; 28 days): 43%; No. Survivors/30 after 28 days (Amitermes wheeleri; listed as noviflumuron): 12
5 | C[C@H]([C@H](O)CCC(C)(C)O)[C@H]1CC[C@@]2(O)C3=CC(=O)[C@@H]4C[C@@H](O)[C@@H](O)C[C@]4(C)[C@H]3CC[C@]12C [ecdysone] | 0.00 ± 0.00 | 0.00 ± 0.00 | 2.38 ± 2.38 | 8.33 ± 5.95 | approximately 7 days | 0.00 ± 0.00 | 0.00 ± 0.00 | 0.00 ± 0.00 | 0.00 ± 0.00a % | approximately 7 days | – | – | – | – | – | – | – | – | mortality at 0.1 ppm (C. formosanus [1]; Coptotermes formosanus, 288 h, C. formosanus, 0.1 ppm, 12-day exposure, read-out: % Mortality (±SE)): 1.79 ± 1.22%; mortality at 1 ppm (C. formosanus [1]; Coptotermes formosanus, 288 h, C. formosanus, 1 ppm, 12-day exposure, read-out: % Mortality (±SE)): 1.19 ± 0.75%; mortality at 10 ppm (C. formosanus [1]; Coptotermes formosanus, 288 h, C. formosanus, 10 ppm, 12-day exposure, read-out: % Mortality (±SE)): 11.3 ± 6.55%; mortality at 100 ppm (C. formosanus [1]; Coptotermes formosanus, 288 h, C. formosanus, 100 ppm, 12-day exposure, read-out: % Mortality (±SE)): 100%; mortality at 1000 ppm (C. formosanus [1]; Coptotermes formosanus, 288 h, C. formosanus, 1,000 ppm, 12-day exposure, read-out: % Mortality (±SE)): 93.5 ± 6.55%; mortality at 0.1 ppm (R. flavipes; Reticulitermes flavipes, 288 h, R. flavipes, 0.1 ppm, 12-day exposure, read-out: % Mortality (±SE)): 0%; mortality at 1 ppm (R. flavipes; Reticulitermes flavipes, 288 h, R. flavipes, 1 ppm, 12-day exposure, read-out: % Mortality (±SE)): 0%; mortality at 10 ppm (R. flavipes; Reticulitermes flavipes, 288 h, R. flavipes, 10 ppm, 12-day exposure, read-out: % Mortality (±SE)): 0%; mortality at 100 ppm (R. flavipes; Reticulitermes flavipes, 288 h, R. flavipes, 100 ppm, 12-day exposure, read-out: % Mortality (±SE)): 60.3 ± 18.1%; mortality at 1000 ppm (R. flavipes; Reticulitermes flavipes, 288 h, R. flavipes, 1,000 ppm, 12-day exposure, read-out: % Mortality (±SE)): 100%
